From ChEMBL document CHEMBL1201862, “PubChem BioAssay data set” (2004)
The source made the active and inactive calls.

How the values were obtained:
[1] = biological target: T1, Calpain-2 catalytic subunit (Sus scrofa, UniProt P43367); assay: m-calpain protease blockers, concentration series – biochemical, fluorogenic peptide substrate, dose response (AID 1420); assay type: functional
T1 sequence (P43367 whole entry): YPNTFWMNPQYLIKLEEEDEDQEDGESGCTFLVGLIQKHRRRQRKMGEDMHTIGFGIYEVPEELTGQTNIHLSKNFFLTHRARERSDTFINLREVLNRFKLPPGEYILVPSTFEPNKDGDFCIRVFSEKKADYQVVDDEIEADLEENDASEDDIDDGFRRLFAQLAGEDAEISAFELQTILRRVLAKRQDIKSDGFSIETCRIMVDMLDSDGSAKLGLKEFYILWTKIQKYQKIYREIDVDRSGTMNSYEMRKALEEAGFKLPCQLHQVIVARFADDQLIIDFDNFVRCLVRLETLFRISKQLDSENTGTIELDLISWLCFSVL

[2] = NIH-3T3 fibroblast cytotoxicity, dose response, cytotoxicity control, cell-based, fluorescence, Alamar Blue, secondary assay (AID 2327); assay type: functional;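 further: NIH-3T3 mouse fibroblasts cultured with fluconazole at 8 µg/mL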
[3] = fluconazole-exposed Candida albicans growth modulators – fluorescence, retest, confirmation (AID 2467); assay type: functional, cell-based
[4] = biological target: Paired box protein Pax-8 (Homo sapiens, UniProt Q06710); assay: PAX8 transcriptional activity inhibition in RMG-I – RMG-I cells, luciferase, cherry-pick, dose response (AID 687027); assay type: functional, cell-based;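 further: luciferase reporter driven by Pax8 target thyroperoxidase promoter measured by SteadyGlo luminescence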
[5] = biological target: T2, Leucine aminopeptidase (Plasmodium falciparum 3D7, UniProt Q8IL11); assay: P. falciparum M17LAP inhibitors, primary screen, biochemical, fluorogenic H-Leu-NHMec substrate, 1536-well (AID 1619); assay type: functional
T2 sequence (Q8IL11 whole entry): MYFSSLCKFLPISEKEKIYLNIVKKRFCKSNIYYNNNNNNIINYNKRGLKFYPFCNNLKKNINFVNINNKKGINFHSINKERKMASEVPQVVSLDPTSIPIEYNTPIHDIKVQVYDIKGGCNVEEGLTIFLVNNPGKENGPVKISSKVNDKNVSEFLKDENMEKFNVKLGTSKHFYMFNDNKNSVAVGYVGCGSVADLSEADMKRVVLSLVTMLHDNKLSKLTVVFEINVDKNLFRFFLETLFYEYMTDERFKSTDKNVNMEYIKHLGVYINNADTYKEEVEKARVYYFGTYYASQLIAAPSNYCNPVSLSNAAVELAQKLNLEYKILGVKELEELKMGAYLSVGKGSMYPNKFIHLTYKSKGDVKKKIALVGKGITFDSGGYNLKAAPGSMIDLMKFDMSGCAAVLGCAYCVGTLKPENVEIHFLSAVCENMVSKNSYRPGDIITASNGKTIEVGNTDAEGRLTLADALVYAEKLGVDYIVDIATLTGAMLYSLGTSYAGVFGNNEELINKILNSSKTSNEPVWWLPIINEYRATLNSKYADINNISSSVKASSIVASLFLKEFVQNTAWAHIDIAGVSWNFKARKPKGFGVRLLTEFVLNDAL

[6] = biological target: T3, Protein RecA (Mycobacterium tuberculosis, UniProt P9WHJ3); assay: Fluorescence Cell-Free Homogeneous Dose Retest to Identify Inhibitors of RecA-Intein Splicing Activity. [Related pubchem assays (depositor defined):AID2097, AID2223, AID489010, AID492950]; assay type: functional
T3 sequence (P9WHJ3 whole entry): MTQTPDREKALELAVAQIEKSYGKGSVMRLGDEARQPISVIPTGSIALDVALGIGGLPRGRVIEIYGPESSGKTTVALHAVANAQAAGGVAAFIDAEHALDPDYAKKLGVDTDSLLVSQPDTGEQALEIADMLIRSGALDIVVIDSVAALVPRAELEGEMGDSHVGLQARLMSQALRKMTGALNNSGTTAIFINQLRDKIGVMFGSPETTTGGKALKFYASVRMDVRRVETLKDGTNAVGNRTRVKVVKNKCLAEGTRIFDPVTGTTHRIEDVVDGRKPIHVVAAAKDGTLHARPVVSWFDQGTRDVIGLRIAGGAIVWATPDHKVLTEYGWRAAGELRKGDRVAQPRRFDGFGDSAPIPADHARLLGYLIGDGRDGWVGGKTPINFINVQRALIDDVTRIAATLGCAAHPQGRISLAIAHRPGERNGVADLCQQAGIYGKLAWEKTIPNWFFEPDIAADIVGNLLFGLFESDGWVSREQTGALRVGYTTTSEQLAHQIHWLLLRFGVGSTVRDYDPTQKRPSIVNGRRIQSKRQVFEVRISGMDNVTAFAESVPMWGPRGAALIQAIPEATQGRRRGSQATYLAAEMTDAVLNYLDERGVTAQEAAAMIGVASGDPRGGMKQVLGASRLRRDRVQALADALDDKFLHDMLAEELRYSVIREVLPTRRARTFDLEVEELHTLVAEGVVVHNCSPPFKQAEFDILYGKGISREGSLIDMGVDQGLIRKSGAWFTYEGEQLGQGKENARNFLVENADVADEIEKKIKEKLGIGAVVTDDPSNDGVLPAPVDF

[7] = biological target: T4, Replicative DNA helicase DnaB (Mycobacterium tuberculosis, UniProt P9WMR3); assay: DnaB intein splicing inhibitors, dose response, biochemical, cell-free fluorescence (AID 449749); assay type: functional
T4 sequence (P9WMR3 whole entry): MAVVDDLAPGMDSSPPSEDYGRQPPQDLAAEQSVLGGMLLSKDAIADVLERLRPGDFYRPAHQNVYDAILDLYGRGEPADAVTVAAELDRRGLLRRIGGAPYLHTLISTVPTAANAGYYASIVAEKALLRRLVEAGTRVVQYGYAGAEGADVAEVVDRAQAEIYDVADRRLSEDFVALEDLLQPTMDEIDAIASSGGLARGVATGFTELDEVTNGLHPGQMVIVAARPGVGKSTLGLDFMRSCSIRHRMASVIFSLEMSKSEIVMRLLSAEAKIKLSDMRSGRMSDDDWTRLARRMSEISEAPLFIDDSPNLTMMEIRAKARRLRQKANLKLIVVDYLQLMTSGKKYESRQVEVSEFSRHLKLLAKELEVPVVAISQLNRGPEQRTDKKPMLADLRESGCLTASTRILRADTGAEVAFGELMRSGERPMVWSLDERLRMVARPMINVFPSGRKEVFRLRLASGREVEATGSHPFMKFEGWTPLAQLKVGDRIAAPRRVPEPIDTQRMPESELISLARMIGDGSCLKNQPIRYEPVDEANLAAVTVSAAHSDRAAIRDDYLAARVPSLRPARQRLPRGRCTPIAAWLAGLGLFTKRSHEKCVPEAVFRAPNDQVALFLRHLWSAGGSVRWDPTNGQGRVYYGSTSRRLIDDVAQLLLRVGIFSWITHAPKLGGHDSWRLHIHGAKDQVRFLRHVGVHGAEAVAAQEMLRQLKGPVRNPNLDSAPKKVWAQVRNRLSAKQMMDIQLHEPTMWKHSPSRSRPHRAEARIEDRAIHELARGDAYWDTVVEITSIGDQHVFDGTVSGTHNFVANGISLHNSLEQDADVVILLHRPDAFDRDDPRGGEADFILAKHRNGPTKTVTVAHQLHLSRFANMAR

[8] = Luminescence Cell-Based Dose Response HTS to Identify Activators of Luciferase Translation or Activity in H4 […] Cells. [Related pubchem assays: 1829 (Project Summary), 1814 (Primary HTS)]; assay type: functional
[9] = test system: H4; assay: Luminescence Cell-Based Dose Response HTS to Identify Activators of 5'UTR Stem-Loop Driven Prion Protein mRNA Translation in H4 Neuroglioblastoma Cells. [Related pubchem assays: 1829 (Project Summary), 1814 (Primary HTS)]; assay type: functional; conditions: Homo sapiens
[10] = biological target: T5, Corticotropin-releasing factor receptor 2/Corticotropin-releasing factor-binding protein (Homo sapiens, UniProt P24387+Q13324); assay: Dose Response confirmation of uHTS hits for small molecule antagonists of the CRF-binding protein and CRF-R2 receptor complex.; assay type: functional; conditions: read-out: IC50_Mean
T5 sequence (Q13324 whole entry): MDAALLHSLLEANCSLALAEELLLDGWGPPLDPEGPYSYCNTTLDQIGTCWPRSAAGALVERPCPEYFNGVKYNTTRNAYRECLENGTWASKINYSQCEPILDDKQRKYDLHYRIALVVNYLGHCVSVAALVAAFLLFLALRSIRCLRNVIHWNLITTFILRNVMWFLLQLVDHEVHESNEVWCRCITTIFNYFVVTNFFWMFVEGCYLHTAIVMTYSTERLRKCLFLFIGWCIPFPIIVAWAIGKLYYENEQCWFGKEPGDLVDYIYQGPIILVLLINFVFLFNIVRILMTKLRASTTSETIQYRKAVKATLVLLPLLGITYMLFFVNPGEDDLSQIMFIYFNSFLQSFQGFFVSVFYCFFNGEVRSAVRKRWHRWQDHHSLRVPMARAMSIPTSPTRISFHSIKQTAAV
T5 sequence (P24387 whole entry): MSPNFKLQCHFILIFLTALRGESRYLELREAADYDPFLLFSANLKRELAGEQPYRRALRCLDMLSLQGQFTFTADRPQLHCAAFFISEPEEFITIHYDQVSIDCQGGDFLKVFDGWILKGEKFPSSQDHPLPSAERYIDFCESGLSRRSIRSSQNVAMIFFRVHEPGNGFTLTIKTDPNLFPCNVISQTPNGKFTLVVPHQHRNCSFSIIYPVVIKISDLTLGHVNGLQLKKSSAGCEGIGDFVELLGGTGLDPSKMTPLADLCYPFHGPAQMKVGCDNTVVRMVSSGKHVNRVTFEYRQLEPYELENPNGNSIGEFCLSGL

[11] = biological target: T5, Corticotropin-releasing factor receptor 2/Corticotropin-releasing factor-binding protein; assay: activators of CRF receptor 2 with binding protein – uHTS hits, confirmation (AID 602473); assay type: functional; conditions: read-out: EC50_Mean
[12] = Luminescence Cell-Based Dose Confirmation HTS to Identify Activators of 5'UTR Stem-Loop Driven Alpha-Synuclein mRNA Translation in H4 Neuroglioblastoma Cells. [Related pubchem assays: 1829 (Project Summary), 1814 (Primary HTS)]; assay type: functional
[13] = biological target: T6, Rac GTPase-activating protein 1 (Homo sapiens, UniProt Q9H0H5); assay: blockers of MgcRacGAP-driven Rac1 GTP hydrolysis – biochemical, ADP Hunter fluorescence, primary and confirmatory, confirmation (AID 624330); assay type: functional
T6 sequence (Q9H0H5 whole entry): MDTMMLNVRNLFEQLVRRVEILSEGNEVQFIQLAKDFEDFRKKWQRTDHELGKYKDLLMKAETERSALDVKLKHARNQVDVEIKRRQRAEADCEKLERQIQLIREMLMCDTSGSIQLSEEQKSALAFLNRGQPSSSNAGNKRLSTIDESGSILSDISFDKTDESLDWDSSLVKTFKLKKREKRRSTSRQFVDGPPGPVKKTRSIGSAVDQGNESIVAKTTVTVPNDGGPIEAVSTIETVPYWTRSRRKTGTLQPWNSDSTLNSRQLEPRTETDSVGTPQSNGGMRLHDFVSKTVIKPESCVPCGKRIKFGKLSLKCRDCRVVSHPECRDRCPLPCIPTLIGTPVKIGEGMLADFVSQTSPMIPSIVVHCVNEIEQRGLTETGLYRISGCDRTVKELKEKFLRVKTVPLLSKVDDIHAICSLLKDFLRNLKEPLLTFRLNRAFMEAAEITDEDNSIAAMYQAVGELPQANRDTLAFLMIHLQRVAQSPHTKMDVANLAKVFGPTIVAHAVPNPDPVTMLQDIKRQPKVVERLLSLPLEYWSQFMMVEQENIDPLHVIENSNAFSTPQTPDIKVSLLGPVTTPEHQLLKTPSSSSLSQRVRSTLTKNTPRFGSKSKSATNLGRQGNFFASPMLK

Sequence of Paired box protein Pax-8 (Q06710 whole entry): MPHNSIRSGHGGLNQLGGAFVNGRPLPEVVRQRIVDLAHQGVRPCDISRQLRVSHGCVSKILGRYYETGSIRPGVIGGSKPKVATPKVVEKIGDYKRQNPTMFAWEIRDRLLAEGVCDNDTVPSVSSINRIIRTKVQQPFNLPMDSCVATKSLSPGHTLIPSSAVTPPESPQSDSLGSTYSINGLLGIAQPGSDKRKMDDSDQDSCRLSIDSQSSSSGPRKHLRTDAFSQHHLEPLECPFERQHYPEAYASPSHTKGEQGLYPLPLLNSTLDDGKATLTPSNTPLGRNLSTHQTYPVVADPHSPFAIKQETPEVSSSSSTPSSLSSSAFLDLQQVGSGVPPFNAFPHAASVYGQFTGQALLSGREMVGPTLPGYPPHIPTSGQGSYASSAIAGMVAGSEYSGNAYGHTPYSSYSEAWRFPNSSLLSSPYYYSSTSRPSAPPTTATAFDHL

Compound: O=C(CCn1c(=O)[nH]c2ccsc2c1=O)NCc1ccc(F)cc1
- IC50 [1]: < 0.4 µM (not active)

Compound: OCCN1CCN(C(S)=NC2CCCC2)CC1
- EC50 [2]: 50.8 µM (active)
- EC50 [3]: 5.25 µM (active)

Compound: O=C(OCC(=O)N1CCN(C(=O)c2ccco2)CC1)c1cccc(S(=O)(=O)N2CCc3ccccc32)c1
- AC50 [4]: 1.38 µM (active)

Compound: O=C1C2CCCCC2C(=O)N1c1ccc(NC2CCCCC2)c([N+](=O)[O-])c1 (configuration not stated)
- IC50 [1]: 4.65 µM (active)

Compound: Cc1cc(NS(=O)(=O)c2ccc(NC(=O)CN3C(=O)c4ccccc4C3=O)cc2)nc(C)n1
- IC50 [5]: 64.4 µM (active)

Compound: CCCC1C(c2ccco2)NC(c2ccco2)CC1(C)O (configuration not stated)
- EC50 [2]: > 150 µM (inactive)
- EC50 [3]: 8.34 µM (active)

Compound: O=C1c2ccccc2NC(c2c[nH]nc2-c2ccc(Cl)cc2)N1O (configuration not stated)
- EC50 [2]: > 160 µM (inactive)
- EC50 [3]: > 38 µM (not active)

Compound: CCOCCCNC(=O)C1CCC(CNS(=O)(=O)c2ccc(Cl)cc2)CC1 (configuration not stated)
- IC50 [1]: > 50 µM (not active)

Compound: C/C(=C\c1ccco1)C1C(C#N)=C(N)Oc2[nH]nc(-c3ccccc3)c21 (configuration not stated)
- EC50 [6]: 3.12 µM (active)
- AC50 [7]: 6.38 µM (active)
- IC50 [5]: 83.7 µM (active)

Compound: COc1cccc(CNc2nn[nH]n2)c1OC
- IC50 [5]: 67.2 µM (active)

Compound: Cc1ccc(NC(=O)CSC2=C(C#N)C(c3ccco3)CC(=O)N2)cc1 (configuration not stated)
- EC50 [8]: 12.4 µM (active)
- EC50 [9]: 16.1 µM (active)
- IC50 [10]: > 47.1 µM (inactive)
- EC50 [11]: > 53 µM (inactive)
- EC50 [12]: 0.908 µM (active)

Compound: CC(=O)Nc1ccc(NC(=O)CCCN2C(=O)c3ccccc3C2=O)cc1
- EC50 [2]: > 150 µM (inactive)

Compound: Cc1ccc(-c2nc(N)sc2-c2ccc(C)cc2)cc1
- IC50 [1]: 3.19 µM (not active)

Compound: OC(CNCc1ccc(Cl)cc1)(c1ccccc1)c1ccc(F)cc1 (configuration not stated)
- IC50 [1]: 12.1 µM (not active)

Compound: CCOC(=O)c1cnn(CCOC(=O)c2cccc(F)c2)c1NC(=O)c1cccc(F)c1
- AC50 [4]: 20 µM (active)

Compound: Cc1ccc(CNC(=O)CCCCCNc2nc(S)nc3ccccc23)cc1
- IC50 [1]: 24.8 µM (not active)

Compound: CC1CCCCN1C(=O)CSc1nc(O)cc(-c2ccccc2)n1 (configuration not stated)
- IC50 [5]: 63.5 µM (active)

Compound: CCCOC(=O)Nc1cc(OC)ccc1[N+](=O)[O-]
- IC50 [1]: 8.71 µM (not active)

Compound: CCOc1ccc(C2C(C(=O)Nc3ccccc3)=C(C)N=c3s/c(=C/c4cccc(OCC(=O)O)c4)c(=O)n32)cc1 (configuration not stated)
- IC50 [5]: 5.95 µM (active)

Compound: O=[N+]([O-])c1ccc(/C(=N\c2cccc3ccccc23)N2CCOCC2)cc1
- EC50 [2]: > 150 µM (inactive)
- EC50 [3]: > 38 µM (not active)

Compound: O=C1c2ccccc2C(=O)N1/N=C/c1ccc(O)c(O)c1
- IC50 [5]: 30.4 µM (active)
- IC50 [13]: 44.5 µM (active)
